Experimental data: PubChem BioAssay (NCI)
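Protocol summary: plate cells (96-well), add compound at 5 concentrations, incubate 48 h, interpolate endpoints linearly. GI50 = concentration required for 50% inhibition of growth. Definition used: TGI = concentration required for complete inhibition of growth.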

Legend:
Experiment in all cases: NCI anticancer screen, dose series, 48 h
[1] = tested on: ACHN renal
[2] = tested on: HT29 colon
[3] = tested on: SN12C renal
[4] = tested on: SNB-19 CNS
[5] = tested on: SW-620 colon
[6] = tested on: HOP-92 NSCLC
[7] = tested on: SK-MEL-28 melanoma
[8] = tested on: SK-MEL-5 melanoma
[9] = tested on: BT-549 breast
[10] = tested on: HS 578T breast

Structure (SMILES): CCc1c(C#N)c(S[C@@H](C(N)=O)c2ccccc2)nc(N(C)C)c1C#N
- GI50 [1]: 3.9 µM
- TGI [1]: > 100 µM
- GI50 [2]: > 100 µM
- TGI [2]: > 100 µM
- GI50 [3]: 6.81 µM
- TGI [3]: > 100 µM
- GI50 [4]: 3.46 µM
- TGI [4]: 21.5 µM
- GI50 [5]: > 100 µM
- TGI [5]: > 100 µM

Structure (SMILES): BrC1=CC=C2NC=CC3=CC=NC1C32 (stereo unspecified)
- TGI [1]: > 93.8 µM
- TGI [6]: 71.2 µM
- TGI [2]: > 66.2 µM
- TGI [7]: > 100 µM
- TGI [8]: 45.4 µM
- TGI [3]: > 100 µM
- TGI [4]: > 75 µM
- TGI [5]: > 60.6 µM

Structure (SMILES): O=C(CO)CC(=O)C(=O)Nc1ccccc1
- TGI [1]: > 100 µM
- TGI [6]: > 100 µM
- TGI [2]: > 100 µM
- TGI [7]: > 100 µM
- TGI [8]: > 100 µM
- TGI [3]: > 100 µM
- TGI [4]: > 100 µM
- TGI [5]: > 100 µM

Structure (SMILES): COc1ccc(-n2nnnc2-c2c[nH]c3c(F)cc(F)cc23)cc1
- GI50 [1]: > 100 µM
- TGI [1]: > 100 µM
- GI50 [9]: > 100 µM
- TGI [9]: > 100 µM
- GI50 [10]: > 100 µM
- TGI [10]: > 100 µM
- GI50 [2]: > 100 µM
- TGI [2]: > 100 µM
- GI50 [7]: > 100 µM
- TGI [7]: > 100 µM
- GI50 [8]: > 100 µM
- TGI [8]: > 100 µM
- GI50 [3]: 86.3 µM
- TGI [3]: > 100 µM
- GI50 [4]: 75.5 µM
- TGI [4]: > 100 µM
- GI50 [5]: > 100 µM
- TGI [5]: > 100 µM

Structure (SMILES): CCCCCCCCCCCCCC(=O)CC(=O)c1c(O)cccc1O
- TGI [1]: 74.5 µM
- TGI [6]: 89.7 µM
- TGI [2]: > 100 µM
- TGI [7]: > 100 µM
- TGI [8]: > 100 µM
- TGI [3]: > 100 µM
- TGI [4]: 99.2 µM
- TGI [5]: 50.2 µM

Structure (SMILES): N#CC(C(=O)/C(=N/N)C(C#N)c1ccccc1)c1ccccc1 (stereo unspecified)
- TGI [1]: > 100 µM
- TGI [6]: > 100 µM
- TGI [2]: > 100 µM
- TGI [7]: > 100 µM
- TGI [8]: > 100 µM
- TGI [3]: > 100 µM
- TGI [4]: > 100 µM
- TGI [5]: > 100 µM

Structure (SMILES): Clc1cc(Cc2cc(Cl)c(Cl)c3c2OCOC3)c2c(c1Cl)COCO2
- TGI [1]: > 100 µM
- TGI [6]: 41.8 µM
- TGI [2]: > 100 µM
- TGI [7]: > 100 µM
- TGI [8]: > 100 µM
- TGI [3]: > 100 µM
- TGI [4]: > 100 µM
- TGI [5]: > 100 µM

Structure (SMILES): COc1cc(C)c(Cl)cc1C1=NN(c2ccc(S(N)(=O)=O)cc2)C(/C=C/c2ccccc2)C1 (stereo unspecified)
- GI50 [1]: 3.2 µM
- TGI [1]: 13.3 µM
- GI50 [9]: 2.35 µM
- TGI [9]: 4.76 µM
- GI50 [10]: 2.89 µM
- TGI [10]: 9.83 µM
- GI50 [2]: 1.8 µM
- TGI [2]: 4.07 µM
- GI50 [7]: 3.1 µM
- TGI [7]: 11.4 µM
- GI50 [8]: 1.61 µM
- TGI [8]: 3 µM
- GI50 [3]: 2.68 µM
- TGI [3]: 7.03 µM
- GI50 [4]: 8.08 µM
- TGI [4]: > 100 µM
- GI50 [5]: 4.09 µM
- TGI [5]: 20.7 µM

Structure (SMILES): CCOc1ccccc1NC(=O)CC1SC(=Nc2ccc([N+](=O)[O-])cc2)NC1=O (stereo unspecified)
- TGI [1]: 46 µM
- TGI [6]: 25.8 µM
- TGI [2]: 50.6 µM
- TGI [7]: 70 µM
- TGI [8]: 30 µM
- TGI [3]: 53.9 µM
- TGI [4]: > 100 µM
- TGI [5]: 52.7 µM

Structure (SMILES): CC(=O)[CH-]C(=O)c1ccccc1.CC(=O)[CH-]C(=O)c1ccccc1.[Eu+3].[OH-].[OH3+]
- GI50 [1]: > 100 µM
- TGI [1]: > 100 µM
- GI50 [6]: 7.44 µM
- TGI [6]: 99.7 µM
- GI50 [2]: > 100 µM
- TGI [2]: > 100 µM
- GI50 [7]: > 100 µM
- TGI [7]: > 100 µM
- GI50 [8]: > 100 µM
- TGI [8]: > 100 µM
- GI50 [3]: > 100 µM
- TGI [3]: > 100 µM
- GI50 [4]: > 100 µM
- TGI [4]: > 100 µM
- GI50 [5]: > 100 µM
- TGI [5]: > 100 µM

Structure (SMILES): O=C(CC1(O)C(=O)Nc2c(Cl)ccc(Cl)c21)c1ccc2ccccc2c1 (stereo unspecified)
- TGI [1]: 26.3 µM
- TGI [2]: 8.61 µM
- TGI [7]: 32.6 µM
- TGI [8]: 17.7 µM
- TGI [3]: 31.3 µM
- TGI [4]: 53 µM
- TGI [5]: 12.5 µM

Structure (SMILES): N#Cc1c(NN)nc(NN)c(C#N)c1-c1ccccc1
- TGI [1]: > 100 µM
- TGI [6]: > 100 µM
- TGI [2]: > 100 µM
- TGI [7]: > 100 µM
- TGI [8]: > 100 µM
- TGI [3]: > 100 µM
- TGI [4]: > 100 µM
- TGI [5]: > 100 µM

Structure (SMILES): CN(C)c1ccc([O][Bi]([Cl])[Cl])cc1
- GI50 [2]: > 100 µM
- TGI [2]: > 100 µM
- GI50 [7]: > 100 µM
- TGI [7]: > 100 µM
- GI50 [8]: 29.6 µM
- TGI [8]: > 100 µM
- GI50 [3]: > 100 µM
- TGI [3]: > 100 µM
- GI50 [4]: > 100 µM
- TGI [4]: > 100 µM
- GI50 [5]: > 100 µM
- TGI [5]: > 100 µM

Structure (SMILES): Oc1cc(O)c2c(-c3c(O)c(-c4ccc(O)c(O)c4)[o+]c4cc(O)cc(O)c34)c(O)c(-c3ccc(O)c(O)c3)[o+]c2c1
- TGI [1]: 66.6 µM
- TGI [6]: > 100 µM
- TGI [2]: > 100 µM
- TGI [7]: > 100 µM
- TGI [8]: > 100 µM
- TGI [3]: > 100 µM
- TGI [4]: > 100 µM
- TGI [5]: > 100 µM

Structure (SMILES): Cn1c(=O)nc2n(-c3cccc(Br)c3)c3ccccc3nc-2c1=O
- TGI [1]: 13.7 µM
- TGI [8]: 3.41 µM
- TGI [3]: 17.1 µM
- TGI [4]: 6.86 µM
- TGI [5]: 8.53 µM

Structure (SMILES): O=C(c1ccco1)c1nc2cc(Cl)ccc2[n+]([O-])c1C(F)(F)F
- GI50 [1]: 51.2 µM
- TGI [1]: > 100 µM
- GI50 [9]: 35.1 µM
- TGI [9]: > 100 µM
- GI50 [10]: > 100 µM
- TGI [10]: > 100 µM
- GI50 [2]: 52.9 µM
- TGI [2]: > 100 µM
- GI50 [7]: 90.1 µM
- TGI [7]: > 100 µM
- GI50 [8]: 20.3 µM
- TGI [8]: 49.6 µM
- GI50 [3]: 91 µM
- TGI [3]: > 100 µM
- GI50 [4]: 69 µM
- TGI [4]: > 100 µM
- GI50 [5]: 39.1 µM
- TGI [5]: > 100 µM

Structure (SMILES): O=c1cc2ccccc2nn1Cc1cccc(Cl)c1
- TGI [1]: > 100 µM
- TGI [6]: > 100 µM
- TGI [2]: > 100 µM
- TGI [7]: > 100 µM
- TGI [8]: > 100 µM
- TGI [3]: > 100 µM
- TGI [4]: > 100 µM
- TGI [5]: > 100 µM

Structure (SMILES): O=C1NC(=O)C2C(=O)NC(=O)C1C2(c1ccccc1)c1cc[nH]c1 (stereo unspecified)
- TGI [1]: > 100 µM
- TGI [6]: > 100 µM
- TGI [2]: > 100 µM
- TGI [7]: > 100 µM
- TGI [8]: > 100 µM
- TGI [3]: > 100 µM
- TGI [4]: > 100 µM
- TGI [5]: > 100 µM

Structure (SMILES): N/C(=C\c1ccc(OCc2ccccc2)c(OCc2ccccc2)c1[N+](=O)[O-])C(=O)O
- TGI [1]: > 100 µM
- TGI [6]: > 100 µM
- TGI [2]: > 100 µM
- TGI [7]: > 100 µM
- TGI [8]: > 100 µM
- TGI [3]: > 100 µM
- TGI [4]: > 100 µM
- TGI [5]: > 100 µM

Structure (SMILES): Cc1ccccc1C(=O)c1ccccc1O
- TGI [1]: > 100 µM
- TGI [6]: > 100 µM
- TGI [2]: > 100 µM
- TGI [7]: > 100 µM
- TGI [8]: > 100 µM
- TGI [3]: > 100 µM
- TGI [4]: > 100 µM
- TGI [5]: > 100 µM

Structure (SMILES): CC(=O)[CH-]C(=O)c1ccccc1.CC(=O)[CH-]C(=O)c1ccccc1.CC(C)CCCC(C)[C@H]1CCC2[C@@H]3CC=C4C[C@@H]([O-])CC[C@]4(C)C3CC[C@@]21C.CC[O-].[Ti+4] (stereo partly specified)
- GI50 [1]: 61 µM
- TGI [1]: > 100 µM
- GI50 [6]: 33.8 µM
- TGI [6]: 94 µM
- GI50 [2]: 64 µM
- TGI [2]: > 100 µM
- GI50 [7]: 30.3 µM
- TGI [7]: > 100 µM
- GI50 [8]: 35.2 µM
- TGI [8]: > 100 µM
- GI50 [3]: 94.5 µM
- TGI [3]: > 100 µM
- GI50 [4]: 32.6 µM
- TGI [4]: > 100 µM
- GI50 [5]: 46.6 µM
- TGI [5]: > 100 µM
